Six compounds from PubChem BioAssay (NCI) can be followed below.

Broadly, the GI50 is the concentration at which growth is held to half of that of the control. The term TGI denotes the concentration giving total growth inhibition. Low values mean more potent growth arrest, high ones less potent growth arrest.

Some test systems named below: T-47D breast; K-562 leukemia; COLO 205 colon; SN12C renal; HOP-92 NSCLC; OVCAR-8 ovarian; IGROV1 ovarian; HCT-15 colon; SK-MEL-2 melanoma; NCI-H226 lung.
Common to all, as to assay: DTP human tumour cell line panel, 48 h

Structures are written as SMILES.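 Where inhibition never reached the appropriate level, the endpoint shown equals the highest concentration tested. Otherwise, values were interpolated linearly from a five-concentration, 48-hour dose response in 96-well plates. The concentration for 50% growth inhibition is given as GI50. TGI denotes the concentration required for complete inhibition of growth.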

Regarding `Oc1c(-c2nnc(-c3ccccc3Cl)o2)sc2nnc(-c3ccccc3)c(-c3ccccc3)c12`, the GI50 in the experiment on T-47D breast was 4.78 µM; in the experiment with K-562 leukemia it was 3.28 µM; with COLO 205 colon it was 4.4 µM; in the experiment on SN12C renal, 4.29 µM; with HOP-92 NSCLC it was 1.81 µM; in the experiment on OVCAR-8 ovarian it was 3.72 µM. Also, the GI50 was 2.47 µM in the experiment with IGROV1 ovarian, 0.813 µM with HCT-15 colon, 3.23 µM in the experiment with SK-MEL-2 melanoma and 16.1 µM with NCI-H226 lung. Also, the concentration for total growth inhibition (TGI) is above 100 µM in the experiment on T-47D breast; above 100 µM with K-562 leukemia; above 100 µM with COLO 205 colon; 90.5 µM in the experiment with SN12C renal; above 100 µM in the experiment on OVCAR-8 ovarian; 8.78 µM with IGROV1 ovarian. Moreover, the TGI in the experiment on HCT-15 colon is above 100 µM; in the experiment on SK-MEL-2 melanoma, 15.7 µM; in the experiment with NCI-H226 lung, above 100 µM.

For `O.O.[NH-]C1(C(=O)O)CCCC1.[NH-]C1(C(=O)O)CCCC1.[Ni+2]`, in the experiment on T-47D breast, the GI50 was above 100 µM. The TGI with T-47D breast, in the experiment with K-562 leukemia, in the experiment with COLO 205 colon, with SN12C renal, with HOP-92 NSCLC and in the experiment with OVCAR-8 ovarian was above 100 µM in each case. In addition, the TGI in the experiment on IGROV1 ovarian, in the experiment with HCT-15 colon, in the experiment on SK-MEL-2 melanoma and with NCI-H226 lung was above 100 µM throughout.

Regarding `C=C1C(=O)O[C@H]2[C@H]1CC/C(COC(=O)CSCSCC(=O)OC/C1=C/CC[C@@]3(C)O[C@H]3[C@H]3OC(=O)C(=C)[C@@H]3CC1)=C\CC[C@@]1(C)O[C@@H]21`, the GI50 in the experiment with T-47D breast was 1.53 µM; with K-562 leukemia it was 0.554 µM; in the experiment on COLO 205 colon, 1.34 µM; in the experiment on SN12C renal it was 1.65 µM; in the experiment with HOP-92 NSCLC, 1.39 µM; in the experiment with OVCAR-8 ovarian it was 1.93 µM. The GI50 was 1.78 µM with IGROV1 ovarian, 1.33 µM in the experiment on HCT-15 colon, 2.29 µM in the experiment with SK-MEL-2 melanoma and 3.51 µM with NCI-H226 lung. The TGI in the experiment on T-47D breast is 3.7 µM; in the experiment on K-562 leukemia, above 100 µM; in the experiment on COLO 205 colon, 3.06 µM; in the experiment with SN12C renal it was 3.85 µM; with HOP-92 NSCLC, 2.85 µM; in the experiment on OVCAR-8 ovarian it was 4.96 µM. In addition, the TGI in the experiment with IGROV1 ovarian was found to be 4.46 µM; in the experiment on HCT-15 colon it was 2.83 µM; in the experiment on SK-MEL-2 melanoma, 5.24 µM; with NCI-H226 lung it was 13.9 µM.

As for `CCCCON(OC(=O)c1ccc2ccccc2c1)C(=O)c1ccccc1`, the GI50 in the experiment with T-47D breast was above 100 µM; in the experiment with K-562 leukemia it was 41.7 µM; with COLO 205 colon it was above 100 µM; in the experiment on SN12C renal, above 100 µM; with HOP-92 NSCLC it was 44.8 µM; with OVCAR-8 ovarian it was above 100 µM. The GI50 with IGROV1 ovarian is 44.1 µM; in the experiment with HCT-15 colon, above 100 µM; in the experiment with SK-MEL-2 melanoma, above 100 µM; in the experiment on NCI-H226 lung, 74 µM. Besides, the TGI in the experiment with T-47D breast, in the experiment with K-562 leukemia, with COLO 205 colon, in the experiment with SN12C renal, in the experiment with HOP-92 NSCLC and with OVCAR-8 ovarian was above 100 µM each time. Moreover, the TGI with IGROV1 ovarian, in the experiment on HCT-15 colon, in the experiment with SK-MEL-2 melanoma and in the experiment with NCI-H226 lung was above 100 µM in each case.

Regarding `N=C1C(c2nc3ccccc3s2)=C(O)CN1c1ccc(F)c(Cl)c1`, the GI50 in the experiment on T-47D breast was 72.5 µM; in the experiment with K-562 leukemia, 31.1 µM; with COLO 205 colon it was above 100 µM; with SN12C renal it was 34.6 µM; in the experiment with HOP-92 NSCLC, 12 µM; with OVCAR-8 ovarian it was 12.6 µM. Besides, the GI50 in the experiment on IGROV1 ovarian is 19.4 µM; with HCT-15 colon, 0.999 µM; with SK-MEL-2 melanoma, 39 µM; with NCI-H226 lung, 6.11 µM. Also, the TGI in the experiment on T-47D breast was above 100 µM; with K-562 leukemia, above 100 µM; in the experiment on COLO 205 colon, above 100 µM; in the experiment on SN12C renal, above 100 µM; in the experiment on HOP-92 NSCLC, 37.5 µM; with OVCAR-8 ovarian it was 33.4 µM. In addition, the TGI is 58.3 µM in the experiment with IGROV1 ovarian, above 100 µM with HCT-15 colon, above 100 µM with SK-MEL-2 melanoma and 55.4 µM in the experiment with NCI-H226 lung.

`CC[C@@H]1c2c(C#N)ncn2-c2cnc(Nc3ccc(C(=O)NC4CCN(C5CCN(CC6CC6)CC5)CC4)cc3OC)nc2N1C1CCCC1`: the GI50 was 1.3 µM in the experiment with T-47D breast; 0.0337 µM in the experiment on K-562 leukemia; 0.0916 µM in the experiment with SN12C renal; 0.0777 µM with HOP-92 NSCLC; 0.0358 µM with IGROV1 ovarian; 0.379 µM in the experiment with HCT-15 colon. Also, the GI50 with SK-MEL-2 melanoma was 0.0407 µM; in the experiment on NCI-H226 lung, 1.31 µM. The TGI worked out at 2.88 µM in the experiment on T-47D breast; 0.308 µM with K-562 leukemia; 1.91 µM in the experiment on SN12C renal; 1.83 µM in the experiment on HOP-92 NSCLC; 1.36 µM in the experiment on IGROV1 ovarian; 1.44 µM in the experiment with HCT-15 colon. Besides, the TGI stood at 1.82 µM in the experiment on SK-MEL-2 melanoma and 2.64 µM with NCI-H226 lung.
